{"source": "patent US20120270237A9", "about": "“METHODS FOR THE IDENTIFICATION OF KINASE INTERACTING MOLECULES AND FOR THE PURIFICATION OF KINASE PROTEINS” (Cellzone AG, priority 2009, published 2012)", "assay_in_all_cases": "Kinobeads competition binding with immobilized CZC25342, mixed HeLa placenta lysates (Example 5, Table 7)", "key": {"[1]": {"biological_target": "T1, kinases from mixed HeLa placenta lysates (Homo sapiens, UniProt Q05397)", "T1 construct": "capturing and identification of kinases from mixed HeLa placenta lysates; endogenous in cells; host or cells: mixed lysate of HeLa cells and placenta tissue", "conditions": "kinase FAK; 10 μM free compound; HeLa Placenta lysate mix", "experimental": "(§1) To one aliquot of cell lysate 10 μM of the free compound (FIG. 2, CZC25342) was added and allowed to bind to proteins in the lysate. Then the affinity matrix with the immobilized compound was added to capture proteins that were not interacting with the previously added free compound. Beads were separated from the lysate and bead bound proteins were eluted in SDS sample buffer and subsequently separated by SDS-Polyacrylamide gel electrophoresis (FIG. 11). Suitable gel bands were cut out and subjected to in-gel proteolytic digestion with trypsin. The second lysate aliquot was processed identically, however no free compound was added (DMSO solvent control). Peptides originating from samples 1 and 2 were labeled with iTRAQ reagents (iTRAQ 114 and iTRAQ 117) and the combined samples were analyzed with a nano-flow liquid chromatography system coupled online to a tandem mass spectrometer (LC-MS/MS) experiment followed by iTRAQ reporter ion quantification in the MS/MS spectra as described in Example 2. The identified kinases are shown in Table 7 including the percent competition values for the sample to which 10 μM free compound had been added. In total of 83 different kinases were identified and competed by different degrees."}, "[2]": {"biological_target": "T2, kinases from mixed HeLa placenta lysates (Homo sapiens, UniProt P16591)", "T2 construct": "capturing and identification of kinases from mixed HeLa placenta lysates; endogenous in cells; host or cells: mixed lysate of HeLa cells and placenta tissue", "T2 sequence (P16591 whole entry)": "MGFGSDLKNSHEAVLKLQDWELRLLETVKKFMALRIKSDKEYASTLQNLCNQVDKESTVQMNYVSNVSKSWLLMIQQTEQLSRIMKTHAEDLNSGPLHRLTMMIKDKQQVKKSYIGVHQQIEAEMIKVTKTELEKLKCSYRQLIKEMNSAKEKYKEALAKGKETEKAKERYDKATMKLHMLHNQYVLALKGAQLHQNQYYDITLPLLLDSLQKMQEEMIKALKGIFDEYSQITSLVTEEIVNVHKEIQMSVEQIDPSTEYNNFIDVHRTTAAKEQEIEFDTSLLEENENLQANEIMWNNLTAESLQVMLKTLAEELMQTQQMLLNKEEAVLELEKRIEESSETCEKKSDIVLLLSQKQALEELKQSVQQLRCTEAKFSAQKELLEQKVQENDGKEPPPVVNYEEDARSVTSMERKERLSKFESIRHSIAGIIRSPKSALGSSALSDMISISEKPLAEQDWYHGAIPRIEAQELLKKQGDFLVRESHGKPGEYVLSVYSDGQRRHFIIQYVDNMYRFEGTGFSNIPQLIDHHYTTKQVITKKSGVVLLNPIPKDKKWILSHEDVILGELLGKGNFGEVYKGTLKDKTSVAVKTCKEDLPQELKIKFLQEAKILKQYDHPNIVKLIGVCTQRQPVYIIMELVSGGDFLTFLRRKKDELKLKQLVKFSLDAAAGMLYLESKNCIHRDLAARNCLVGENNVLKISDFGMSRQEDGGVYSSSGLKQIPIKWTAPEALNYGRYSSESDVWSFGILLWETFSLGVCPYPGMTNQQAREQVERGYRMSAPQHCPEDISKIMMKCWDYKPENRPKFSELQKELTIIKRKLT", "conditions": "kinase FER; 10 μM free compound; HeLa Placenta lysate mix", "experimental": "as §1"}, "[3]": {"biological_target": "T3, kinases from mixed HeLa placenta lysates (Homo sapiens, UniProt P23458)", "T3 construct": "capturing and identification of kinases from mixed HeLa placenta lysates; endogenous in cells; host or cells: mixed lysate of HeLa cells and placenta tissue", "conditions": "kinase JAK1; 10 μM free compound; HeLa Placenta lysate mix", "experimental": "as §1"}, "[4]": {"biological_target": "T4, kinases from mixed HeLa placenta lysates (Homo sapiens, UniProt Q14164)", "T4 construct": "capturing and identification of kinases from mixed HeLa placenta lysates; endogenous in cells; host or cells: mixed lysate of HeLa cells and placenta tissue", "conditions": "kinase IKKe; 10 μM free compound; HeLa Placenta lysate mix", "experimental": "as §1"}, "[5]": {"biological_target": "T5, kinases from mixed HeLa placenta lysates (Homo sapiens, UniProt Q13976)", "T5 construct": "capturing and identification of kinases from mixed HeLa placenta lysates; endogenous in cells; host or cells: mixed lysate of HeLa cells and placenta tissue", "conditions": "kinase PKG1; 10 μM free compound; HeLa Placenta lysate mix", "experimental": "as §1"}, "[6]": {"biological_target": "T6, kinases from mixed HeLa placenta lysates (Homo sapiens, UniProt Q8TBX8)", "T6 construct": "capturing and identification of kinases from mixed HeLa placenta lysates; endogenous in cells; host or cells: mixed lysate of HeLa cells and placenta tissue", "conditions": "kinase PIP5K2C; 10 μM free compound; HeLa Placenta lysate mix", "experimental": "as §1"}, "[7]": {"biological_target": "T7, kinases from mixed HeLa placenta lysates (Homo sapiens, UniProt Q9Y2U5)", "T7 construct": "capturing and identification of kinases from mixed HeLa placenta lysates; endogenous in cells; host or cells: mixed lysate of HeLa cells and placenta tissue", "conditions": "kinase MAP3K2; 10 μM free compound; HeLa Placenta lysate mix", "experimental": "as §1"}, "[8]": {"biological_target": "T8, kinases from mixed HeLa placenta lysates (Homo sapiens, UniProt Q08345)", "T8 construct": "capturing and identification of kinases from mixed HeLa placenta lysates; endogenous in cells; host or cells: mixed lysate of HeLa cells and placenta tissue", "conditions": "kinase DDR1; 10 μM free compound; HeLa Placenta lysate mix", "experimental": "as §1"}, "[9]": {"biological_target": "T9, kinases from mixed HeLa placenta lysates (Homo sapiens, UniProt P35916)", "T9 construct": "capturing and identification of kinases from mixed HeLa placenta lysates; endogenous in cells; host or cells: mixed lysate of HeLa cells and placenta tissue", "conditions": "kinase FLT4; 10 μM free compound; HeLa Placenta lysate mix", "experimental": "as §1"}, "[10]": {"biological_target": "T10, kinases from mixed HeLa placenta lysates (Homo sapiens, UniProt Q99683)", "T10 construct": "capturing and identification of kinases from mixed HeLa placenta lysates; endogenous in cells; host or cells: mixed lysate of HeLa cells and placenta tissue", "T10 sequence (Q99683 whole entry)": "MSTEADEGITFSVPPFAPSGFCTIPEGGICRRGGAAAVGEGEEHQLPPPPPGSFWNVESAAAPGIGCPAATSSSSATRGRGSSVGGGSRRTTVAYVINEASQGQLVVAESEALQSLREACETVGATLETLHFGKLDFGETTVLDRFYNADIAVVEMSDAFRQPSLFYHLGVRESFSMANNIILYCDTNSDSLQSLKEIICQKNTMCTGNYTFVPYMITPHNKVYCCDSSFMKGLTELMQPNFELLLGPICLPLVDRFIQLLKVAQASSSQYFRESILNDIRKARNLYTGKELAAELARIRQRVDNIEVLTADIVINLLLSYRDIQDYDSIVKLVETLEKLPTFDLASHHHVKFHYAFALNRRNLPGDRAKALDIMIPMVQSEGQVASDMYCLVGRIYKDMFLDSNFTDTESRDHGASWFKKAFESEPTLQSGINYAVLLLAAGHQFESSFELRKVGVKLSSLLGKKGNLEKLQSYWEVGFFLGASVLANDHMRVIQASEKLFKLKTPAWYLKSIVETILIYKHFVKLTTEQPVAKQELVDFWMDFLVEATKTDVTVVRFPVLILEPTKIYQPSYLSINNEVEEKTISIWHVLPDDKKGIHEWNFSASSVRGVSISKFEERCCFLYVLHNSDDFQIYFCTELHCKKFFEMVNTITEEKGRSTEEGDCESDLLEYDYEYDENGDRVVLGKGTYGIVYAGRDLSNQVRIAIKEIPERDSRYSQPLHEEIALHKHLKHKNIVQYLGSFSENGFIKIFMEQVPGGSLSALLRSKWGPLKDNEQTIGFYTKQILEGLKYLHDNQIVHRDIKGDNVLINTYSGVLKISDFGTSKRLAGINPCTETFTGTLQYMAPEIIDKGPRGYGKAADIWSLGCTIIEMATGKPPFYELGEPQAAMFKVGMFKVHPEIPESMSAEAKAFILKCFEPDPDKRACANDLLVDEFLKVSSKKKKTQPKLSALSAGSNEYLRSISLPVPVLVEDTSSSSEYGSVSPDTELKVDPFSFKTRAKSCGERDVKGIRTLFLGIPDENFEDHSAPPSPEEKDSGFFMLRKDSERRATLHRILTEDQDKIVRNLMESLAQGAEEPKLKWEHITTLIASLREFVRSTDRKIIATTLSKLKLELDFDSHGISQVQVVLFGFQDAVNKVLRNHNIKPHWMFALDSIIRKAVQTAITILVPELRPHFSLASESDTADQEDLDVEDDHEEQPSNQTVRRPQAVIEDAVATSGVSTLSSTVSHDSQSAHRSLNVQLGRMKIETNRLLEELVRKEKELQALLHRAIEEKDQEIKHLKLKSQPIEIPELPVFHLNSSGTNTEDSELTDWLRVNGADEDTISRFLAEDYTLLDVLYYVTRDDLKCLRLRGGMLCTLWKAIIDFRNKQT", "conditions": "kinase MAP3K5; 10 μM free compound; HeLa Placenta lysate mix", "experimental": "as §1"}, "[11]": {"biological_target": "T11, kinases from mixed HeLa placenta lysates (Homo sapiens, UniProt P54646)", "T11 construct": "capturing and identification of kinases from mixed HeLa placenta lysates; endogenous in cells; host or cells: mixed lysate of HeLa cells and placenta tissue", "conditions": "kinase AMPKa2; 10 μM free compound; HeLa Placenta lysate mix", "experimental": "as §1"}, "[12]": {"biological_target": "T12, kinases from mixed HeLa placenta lysates (Homo sapiens, UniProt P28482)", "T12 construct": "capturing and identification of kinases from mixed HeLa placenta lysates; endogenous in cells; host or cells: mixed lysate of HeLa cells and placenta tissue", "T12 sequence (P28482 whole entry)": "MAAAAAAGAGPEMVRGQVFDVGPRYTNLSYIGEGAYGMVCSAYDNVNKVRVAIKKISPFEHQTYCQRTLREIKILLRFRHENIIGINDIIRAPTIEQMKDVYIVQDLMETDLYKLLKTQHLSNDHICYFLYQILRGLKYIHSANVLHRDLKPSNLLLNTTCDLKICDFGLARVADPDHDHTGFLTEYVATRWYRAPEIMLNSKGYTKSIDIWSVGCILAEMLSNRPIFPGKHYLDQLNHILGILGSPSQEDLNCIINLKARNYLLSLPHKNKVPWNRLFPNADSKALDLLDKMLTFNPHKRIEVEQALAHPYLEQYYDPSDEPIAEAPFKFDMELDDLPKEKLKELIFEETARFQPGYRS", "conditions": "kinase Erk2; 10 μM free compound; HeLa Placenta lysate mix", "experimental": "as §1"}, "[13]": {"biological_target": "T13, kinases from mixed HeLa placenta lysates (Homo sapiens, UniProt Q13131)", "T13 construct": "capturing and identification of kinases from mixed HeLa placenta lysates; endogenous in cells; host or cells: mixed lysate of HeLa cells and placenta tissue", "conditions": "kinase AMPKa1; 10 μM free compound; HeLa Placenta lysate mix", "experimental": "as §1"}, "[14]": {"biological_target": "T14, kinases from mixed HeLa placenta lysates (Homo sapiens, UniProt O75716)", "T14 construct": "capturing and identification of kinases from mixed HeLa placenta lysates; endogenous in cells; host or cells: mixed lysate of HeLa cells and placenta tissue", "T14 sequence (O75716 whole entry)": "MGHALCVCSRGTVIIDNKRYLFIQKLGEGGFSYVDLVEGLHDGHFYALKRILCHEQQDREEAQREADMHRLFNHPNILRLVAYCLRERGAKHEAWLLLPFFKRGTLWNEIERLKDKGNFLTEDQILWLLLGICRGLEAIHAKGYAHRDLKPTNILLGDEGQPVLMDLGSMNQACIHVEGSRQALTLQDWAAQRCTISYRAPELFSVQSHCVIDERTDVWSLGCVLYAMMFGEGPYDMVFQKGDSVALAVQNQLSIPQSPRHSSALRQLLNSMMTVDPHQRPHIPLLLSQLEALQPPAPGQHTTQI", "conditions": "kinase MPSK1; 10 μM free compound; HeLa Placenta lysate mix", "experimental": "as §1"}, "[15]": {"biological_target": "T15, kinases from mixed HeLa placenta lysates (Homo sapiens, UniProt Q5TCX8)", "T15 construct": "capturing and identification of kinases from mixed HeLa placenta lysates; endogenous in cells; host or cells: mixed lysate of HeLa cells and placenta tissue", "conditions": "kinase MLK4; 10 μM free compound; HeLa Placenta lysate mix", "experimental": "as §1"}, "[16]": {"biological_target": "T16, kinases from mixed HeLa placenta lysates (Homo sapiens, UniProt Q13557)", "T16 construct": "capturing and identification of kinases from mixed HeLa placenta lysates; endogenous in cells; host or cells: mixed lysate of HeLa cells and placenta tissue", "conditions": "kinase CaMK2d; 10 μM free compound; HeLa Placenta lysate mix", "experimental": "as §1"}, "[17]": {"biological_target": "T17, kinases from mixed HeLa placenta lysates (Homo sapiens, UniProt P30291)", "T17 construct": "capturing and identification of kinases from mixed HeLa placenta lysates; endogenous in cells; host or cells: mixed lysate of HeLa cells and placenta tissue", "conditions": "kinase Wee1; 10 μM free compound; HeLa Placenta lysate mix", "experimental": "as §1"}, "[18]": {"biological_target": "T18, kinases from mixed HeLa placenta lysates (Homo sapiens, UniProt O94804)", "T18 construct": "capturing and identification of kinases from mixed HeLa placenta lysates; endogenous in cells; host or cells: mixed lysate of HeLa cells and placenta tissue", "conditions": "kinase LOK; 10 μM free compound; HeLa Placenta lysate mix", "experimental": "as §1"}, "[19]": {"biological_target": "T19, kinases from mixed HeLa placenta lysates (Homo sapiens, UniProt Q9H422)", "T19 construct": "capturing and identification of kinases from mixed HeLa placenta lysates; endogenous in cells; host or cells: mixed lysate of HeLa cells and placenta tissue", "T19 sequence (Q9H422 whole entry)": "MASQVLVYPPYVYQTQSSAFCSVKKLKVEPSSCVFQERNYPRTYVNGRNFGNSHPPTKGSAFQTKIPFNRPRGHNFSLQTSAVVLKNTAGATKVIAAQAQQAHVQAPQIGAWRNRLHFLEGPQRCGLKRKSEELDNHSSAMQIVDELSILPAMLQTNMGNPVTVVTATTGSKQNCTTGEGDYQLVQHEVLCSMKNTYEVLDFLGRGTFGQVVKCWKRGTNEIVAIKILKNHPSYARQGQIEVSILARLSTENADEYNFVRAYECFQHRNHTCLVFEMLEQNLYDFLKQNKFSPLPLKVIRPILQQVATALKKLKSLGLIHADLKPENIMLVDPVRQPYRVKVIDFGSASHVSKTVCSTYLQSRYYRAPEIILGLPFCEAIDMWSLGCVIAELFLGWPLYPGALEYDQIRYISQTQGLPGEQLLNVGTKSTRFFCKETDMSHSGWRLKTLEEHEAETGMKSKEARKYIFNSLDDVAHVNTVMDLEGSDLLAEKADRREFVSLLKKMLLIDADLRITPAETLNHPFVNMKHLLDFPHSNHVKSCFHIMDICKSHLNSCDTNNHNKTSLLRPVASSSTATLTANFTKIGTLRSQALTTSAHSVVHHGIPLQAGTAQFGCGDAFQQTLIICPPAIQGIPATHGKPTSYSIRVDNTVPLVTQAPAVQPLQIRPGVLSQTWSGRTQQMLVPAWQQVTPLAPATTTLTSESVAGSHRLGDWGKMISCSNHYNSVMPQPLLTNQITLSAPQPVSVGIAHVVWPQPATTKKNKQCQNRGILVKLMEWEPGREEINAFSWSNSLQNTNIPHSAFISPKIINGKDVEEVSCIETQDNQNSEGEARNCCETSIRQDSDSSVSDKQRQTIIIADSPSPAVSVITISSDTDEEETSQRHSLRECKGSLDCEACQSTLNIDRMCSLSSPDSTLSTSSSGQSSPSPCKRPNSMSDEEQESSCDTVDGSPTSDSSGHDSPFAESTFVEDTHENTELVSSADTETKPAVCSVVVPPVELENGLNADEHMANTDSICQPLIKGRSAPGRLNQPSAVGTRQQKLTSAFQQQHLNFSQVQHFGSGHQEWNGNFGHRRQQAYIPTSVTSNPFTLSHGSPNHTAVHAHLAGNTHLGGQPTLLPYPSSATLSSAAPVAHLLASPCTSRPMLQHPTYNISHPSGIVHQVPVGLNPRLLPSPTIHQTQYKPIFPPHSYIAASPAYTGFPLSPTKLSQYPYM", "conditions": "kinase HIPK3; 10 μM free compound; HeLa Placenta lysate mix", "experimental": "as §1"}, "[20]": {"biological_target": "T20, kinases from mixed HeLa placenta lysates (Homo sapiens, UniProt O43353)", "T20 construct": "capturing and identification of kinases from mixed HeLa placenta lysates; endogenous in cells; host or cells: mixed lysate of HeLa cells and placenta tissue", "conditions": "kinase RIPK2; 10 μM free compound; HeLa Placenta lysate mix", "experimental": "as §1"}, "[21]": {"biological_target": "T21, kinases from mixed HeLa placenta lysates (Homo sapiens, UniProt P42680)", "T21 construct": "capturing and identification of kinases from mixed HeLa placenta lysates; endogenous in cells; host or cells: mixed lysate of HeLa cells and placenta tissue", "conditions": "kinase TEC; 10 μM free compound; HeLa Placenta lysate mix", "experimental": "as §1"}, "[22]": {"biological_target": "T22, kinases from mixed HeLa placenta lysates (Homo sapiens, UniProt O75676)", "T22 construct": "capturing and identification of kinases from mixed HeLa placenta lysates; endogenous in cells; host or cells: mixed lysate of HeLa cells and placenta tissue", "conditions": "kinase MSK2; 10 μM free compound; HeLa Placenta lysate mix", "experimental": "as §1"}, "[23]": {"biological_target": "T23, kinases from mixed HeLa placenta lysates (Homo sapiens, UniProt Q9Y6R4)", "T23 construct": "capturing and identification of kinases from mixed HeLa placenta lysates; endogenous in cells; host or cells: mixed lysate of HeLa cells and placenta tissue", "conditions": "kinase MAP3K4; 10 μM free compound; HeLa Placenta lysate mix", "experimental": "as §1"}, "[24]": {"biological_target": "T24, kinases from mixed HeLa placenta lysates (Homo sapiens, UniProt Q16513)", "T24 construct": "capturing and identification of kinases from mixed HeLa placenta lysates; endogenous in cells; host or cells: mixed lysate of HeLa cells and placenta tissue", "T24 sequence (Q16513 whole entry)": "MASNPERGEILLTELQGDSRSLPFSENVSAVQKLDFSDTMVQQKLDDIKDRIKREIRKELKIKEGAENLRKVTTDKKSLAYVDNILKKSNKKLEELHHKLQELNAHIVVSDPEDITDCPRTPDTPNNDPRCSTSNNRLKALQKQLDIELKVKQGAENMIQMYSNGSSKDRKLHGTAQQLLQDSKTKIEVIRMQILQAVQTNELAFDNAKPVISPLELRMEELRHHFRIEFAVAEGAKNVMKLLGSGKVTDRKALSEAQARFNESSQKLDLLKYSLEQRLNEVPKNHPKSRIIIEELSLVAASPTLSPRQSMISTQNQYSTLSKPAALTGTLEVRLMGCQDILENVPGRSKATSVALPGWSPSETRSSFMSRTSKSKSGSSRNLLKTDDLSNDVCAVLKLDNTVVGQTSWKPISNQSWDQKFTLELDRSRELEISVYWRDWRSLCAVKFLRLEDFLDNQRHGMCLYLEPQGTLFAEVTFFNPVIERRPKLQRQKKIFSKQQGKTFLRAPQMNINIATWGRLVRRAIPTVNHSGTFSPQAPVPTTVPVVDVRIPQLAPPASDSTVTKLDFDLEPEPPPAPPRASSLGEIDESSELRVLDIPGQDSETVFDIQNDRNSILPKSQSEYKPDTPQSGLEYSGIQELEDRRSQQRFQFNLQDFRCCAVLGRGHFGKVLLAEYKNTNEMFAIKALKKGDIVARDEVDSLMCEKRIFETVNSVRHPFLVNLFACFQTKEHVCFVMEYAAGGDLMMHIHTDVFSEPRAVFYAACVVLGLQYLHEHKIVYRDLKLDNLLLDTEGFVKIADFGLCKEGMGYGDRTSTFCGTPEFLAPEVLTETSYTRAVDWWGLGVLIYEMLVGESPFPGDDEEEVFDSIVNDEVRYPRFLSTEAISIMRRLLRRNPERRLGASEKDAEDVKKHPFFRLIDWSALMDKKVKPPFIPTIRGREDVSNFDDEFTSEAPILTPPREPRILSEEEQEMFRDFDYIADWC", "conditions": "kinase PKN2; 10 μM free compound; HeLa Placenta lysate mix", "experimental": "as §1"}}}
{"smiles": "CS(=O)(=O)Nc1ccccc1Nc1nc(Nc2cccc(OCCN)c2)ncc1F", "note": "[CZC25342, N-(2-(2-(3-(2-aminoethoxy)phenylamino)-5-fluoropyrimidin-4-ylamino)phenyl)methanesulfonamide]", "values": [{"measurement": "Competition % FAK", "setting": "[1]", "result": 96, "unit": "%"}, {"measurement": "Competition % FER", "setting": "[2]", "result": 96.7, "unit": "%"}, {"measurement": "Competition % JAK1", "setting": "[3]", "result": 96.7, "unit": "%"}, {"measurement": "Competition % IKKe", "setting": "[4]", "result": 69, "unit": "%"}, {"measurement": "Competition % PKG1", "setting": "[5]", "result": 79.3, "unit": "%"}, {"measurement": "Competition % PIP5K2C", "setting": "[6]", "result": 97.3, "unit": "%"}, {"measurement": "Competition % MAP3K2", "setting": "[7]", "result": 94.7, "unit": "%"}, {"measurement": "Competition % DDR1", "setting": "[8]", "result": 94.1, "unit": "%"}, {"measurement": "Competition % FLT4", "setting": "[9]", "result": 88.2, "unit": "%"}, {"measurement": "Competition % MAP3K5", "setting": "[10]", "result": 94.1, "unit": "%"}, {"measurement": "Competition % AMPKa2", "setting": "[11]", "result": 97.1, "unit": "%"}, {"measurement": "Competition % Erk2", "setting": "[12]", "result": 48.5, "unit": "%"}, {"measurement": "Competition % AMPKa1", "setting": "[13]", "result": 95.2, "unit": "%"}, {"measurement": "Competition % MPSK1", "setting": "[14]", "result": 92.1, "unit": "%"}, {"measurement": "Competition % MLK4", "setting": "[15]", "result": 85.8, "unit": "%"}, {"measurement": "Competition % CaMK2d", "setting": "[16]", "result": 40.6, "unit": "%"}, {"measurement": "Competition % Wee1", "setting": "[17]", "result": 97.5, "unit": "%"}, {"measurement": "Competition % LOK", "setting": "[18]", "result": 97.7, "unit": "%"}, {"measurement": "Competition % HIPK3", "setting": "[19]", "result": 95.4, "unit": "%"}, {"measurement": "Competition % RIPK2", "setting": "[20]", "result": 94.4, "unit": "%"}, {"measurement": "Competition % TEC", "setting": "[21]", "result": 89.3, "unit": "%"}, {"measurement": "Competition % MSK2", "setting": "[22]", "result": 93.2, "unit": "%"}, {"measurement": "Competition % MAP3K4", "setting": "[23]", "result": 92.2, "unit": "%"}, {"measurement": "Competition % PKN2", "setting": "[24]", "result": 98, "unit": "%"}]}
